# System: Plasmodium falciparum 3D7
# Assay: pEC50, asexual blood-stage growth inhibition
# Conditions: 72 h
# Description: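 Held-out test set measured in the Guy lab in 2014 with the same procedure as the primary St. Jude screen. P. falciparum 3D7 blood-stage culture (2% hematocrit, 1% parasitemia) was treated with compound for 72 h at 37 °C, and growth was read by SYBR Green I fluorescence. EC50 came from a four-parameter Hill fit over a 10-point dilution series […].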
row,SMILES,pEC50
1,Cc1cccc(CN2CCCn3c4c(c5cc(C)ccc53)CCCC42)c1 (centres undefined),5.33
2,CC(CN1CCCCC1)NC(=O)c1cc(-c2cccnc2)nc2ccc(Cl)cc12 (centres undefined),5.7
3,OCCC1CN(Cc2cc(Cl)ccc2O)CCN1C1CCCCC1 (centres undefined),< 4.82
4,O=C(Nc1ccccc1)c1ccccc1OCC(O)CN(Cc1ccccc1)Cc1ccccc1 (centres undefined),6.31
5,COc1cccc(CNc2nnnn2C)c1OCc1ccc(C)cc1,< 4.82
6,Cc1ccc(OCC(O)CNC2CCCC2)c(C)c1 (centres undefined),5.19
7,Cc1onc(-c2c(Cl)cccc2Cl)c1C(=O)Nc1cc(Cl)ccc1Cl,6.54
8,COc1ccc(OC)c(C2CC(=O)NC3=C2C(=O)CC(c2ccc(OC)c(OC)c2)C3)c1 (centres undefined),< 4.82
9,CCOc1cc2c(cc1OCC)C(c1ccc(O)cc1)NCC2 (centres undefined),< 4.82
10,COc1ccccc1-c1c(C(F)(F)F)oc2c(CN(C)C3CCCCC3)c(O)ccc2c1=O,< 4.82
11,O=C1CC(c2c(F)cccc2Cl)C2=C(CC(c3ccc(F)cc3)CC2=O)N1 (centres undefined),< 4.82
12,CN(C)c1ccc(NC(=O)/C=C/c2cccc(Cl)c2)cc1,6.39
13,Cc1ccccc1OCC(O)CNC1CCCCC1 (centres undefined),< 4.82
14,CCOC(=O)C1=C(C)NC2=C(C(=O)CC(c3ccc(Cl)cc3)C2)C1c1ccc(OCC)cc1 (centres undefined),< 4.82
15,CC(C)c1ccc(/C=C/C(=O)Nc2cccc(Cl)c2)cc1,< 4.82
16,OC(CNCc1ccc(OCc2ccccc2)cc1)c1ccccc1 (centres undefined),5.38
17,CCOc1ccc(-c2nonc2NC(=O)c2ccco2)cc1,6.71
18,CCc1ccc(NC(=O)/C=C/c2ccccc2Cl)cc1,6.69
19,COc1ccc(Oc2c(C(F)(F)F)oc3c(CN4CCCC(C)C4)c(O)ccc3c2=O)cc1 (centres undefined),< 4.82
20,COc1ccc(C2C(C(=O)OCCOc3ccccc3)=C(C)NC3=C2C(=O)CC(c2ccc(Cl)cc2)C3)cc1 (centres undefined),< 4.82
21,CCOc1cc(C2C(C(=O)OC(C)CC)=C(C)NC3=C2C(=O)CC(c2ccc(Cl)cc2)C3)ccc1O (centres undefined),< 4.82
22,COc1c(O)ccc(/C=N/NC(=O)C2CC2(c2ccccc2)c2ccccc2)c1[N+](=O)[O-] (centres undefined),< 4.82
23,CC1=C(C(=O)OCCOc2ccccc2)C(c2cccc(O)c2)C2=C(CC(c3ccc(Cl)cc3)CC2=O)N1 (centres undefined),< 4.82
24,C=CCn1c(=N)n(CC(O)c2ccc(Br)cc2)c2ccccc21 (centres undefined),5.62
25,COc1ccc(C2CC(=O)C3=C(C2)NC(=O)CC3c2ccc(Cl)cc2Cl)cc1OC (centres undefined),5.7
26,COc1ccc(CCNCC(O)Cn2c3ccccc3c3ccccc32)cc1OC (centres undefined),5.26
27,COc1ccc(OC)c(C2CC(=O)C3=C(C2)NC(=O)CC3c2cccc(Cl)c2Cl)c1 (centres undefined),5.61

row,SMILES,pEC50
1,OC(CNc1ccccc1)Cn1c2ccccc2c2ccccc21 (centres undefined),< 4.82
2,Cc1cccc2c(C(=O)N3CCN(C/C=C/c4ccccc4)CC3)cc(-c3cccnc3)nc12,< 4.82
3,COc1cccc(-c2cc(C(=O)N3CCN(Cc4ccccc4)CC3)c3ccccc3n2)c1,< 4.82
4,CCOC(=O)C1=C(C)NC2=C(C(=O)CC(c3ccc(Cl)cc3)C2)C1c1cc(OC)c(OC)c(OC)c1 (centres undefined),< 4.82
5,C=CCn1c(=O)/c(=C/C=C2\C=CN(CC)c3ccccc32)s/c1=C\c1sc(-c2ccccc2)c(-c2ccccc2)[n+]1CC,5.37
6,Nc1ccc(-c2nc3cc(-c4nc5cc(N)ccc5[nH]4)ccc3[nH]2)cc1,5.64
7,CN1CCN([C@@H]2CCN(Cc3cc(Cl)ccc3O)C[C@H]2O)CC1,< 4.82
8,O=C(Cc1ccc(Br)cc1)Nc1cccc(-c2nc3ccccc3[nH]2)c1,< 4.82
9,COc1cc(C2CC(=O)NC3=C2C(=O)CC(c2ccc(C)cc2)C3)ccc1O (centres undefined),< 4.82
10,O=c1c(Oc2ccccc2Cl)c(C(F)(F)F)oc2c(CN3CCCCC3)c(O)ccc12,< 4.82
11,CCN(CC)c1nc(Nc2cccc(Br)c2)nc(Nc2cc(C)ccc2C)n1,< 4.82
12,COc1ccc(CCNC(=O)c2cn(C3CCCCC3)cc(C(=O)NC(C)(C)C)c2=O)cc1,6.95
13,Cc1ccc2[nH]c(-c3ccc(Br)cc3)nc2c1,< 4.82
14,COc1ccc(C)cc1S(=O)(=O)N1CCC(CO)(Cc2cccc(C(F)(F)F)c2)CC1,< 4.82
15,CCOC(=O)c1ccc(NC(=O)/C=C/c2ccccc2Cl)cc1,< 4.82
16,CCN(CC)CCn1c(=N)n(CC(O)COc2ccccc2)c2ccccc21 (centres undefined),< 4.82
17,CCCCn1nnnc1NCc1ccc(OC)c(OC)c1OC,6.32
18,O=C(NC1C2CC3CC(C2)CC1C3)c1ccc2c(=O)n3c(nc2c1)CCCCC3 (centres undefined),< 4.82
19,O=C(NCC1CCCCC1)c1cn(C2CC2)cc(C(=O)NC2CCN(Cc3ccccc3)CC2)c1=O,< 4.82
20,Oc1ccc(Cl)cc1CN1CCCC(N2CCCC2)C1 (centres undefined),< 4.82
21,COc1ccccc1-c1c(C(F)(F)F)oc2c(CN3CCC(C)CC3)c(O)ccc2c1=O,< 4.82
22,CCOc1cc(C2C(C(=O)OCCOC)=C(C)NC3=C2C(=O)CC(c2ccc(Cl)cc2)C3)ccc1O (centres undefined),5.52
23,COc1ccc(C2CC(=O)NC3=C2C(=O)CC(c2ccccc2)C3)cc1OC (centres undefined),5.34
24,Cc1ccc2nc(-c3cccnc3)cc(C(=O)N3CCN(C(c4ccccc4)c4ccccc4)CC3)c2c1,5.71
25,OC(CNCCc1ccccc1)COc1ccccc1Cl (centres undefined),5.3
26,N=c1n(CCN2CCCCC2)c2ccccc2n1CC(O)COc1ccc(Cl)cc1 (centres undefined),5.33
27,CCOC(=O)C1=C(C)NC2=C(C(=O)CC(c3ccc(OC)cc3)C2)C1c1cccc(F)c1 (centres undefined),6.13

row,SMILES,pEC50
1,COc1ccccc1-c1cc(C(=O)N2CCC(Cc3ccccc3)CC2)c2ccccc2n1,< 4.82
2,O=S(=O)(c1cccc(C(F)(F)F)c1)N1CCC(CO)(Cc2cccc(C(F)(F)F)c2)CC1,5.68
3,CCOc1ccccc1Oc1c(C(F)(F)F)oc2c(CN3CCCCCC3)c(O)ccc2c1=O,< 4.82
4,c1cc(-c2nc3ccccc3[nH]2)nc(-c2nc3ccccc3[nH]2)c1,5.39
5,Cc1ccccc1Cn1c(=N)n(CC(O)c2ccc(Cl)c(Cl)c2)c2ccccc21 (centres undefined),6.39
6,CN(C)c1ccc(NC(=O)C2CC2c2ccccc2)cc1 (centres undefined),< 4.82
7,Cc1cccc(Oc2c(C(F)(F)F)oc3c(CN4CCCC4)c(O)ccc3c2=O)c1,< 4.82
8,Cn1nccc1C(=O)Nc1cc(Oc2ccc(Cl)cc2)cc([N+](=O)[O-])c1,< 4.82
9,O=C(Cc1ccccc1)N1CCN(c2ccc([N+](=O)[O-])c(NC3CC3)c2)CC1,< 4.82
10,OC(CNCc1ccc(-c2ccccc2)cc1)c1ccccc1 (centres undefined),< 4.82
11,OCCC1CN(Cc2cc(Cl)ccc2O)CCN1Cc1ccccc1 (centres undefined),< 4.82
12,CC1CCN(CC(O)Cn2c3ccc(Cl)cc3c3cc(Cl)ccc32)CC1 (centres undefined),< 4.82
13,CCCCn1c(=N)n(CC(=O)c2ccc(Cl)cc2)c2ccccc21,< 4.82
14,Cc1cc(OCC(O)CNC2CCCC2)ccc1Cl (centres undefined),6.61
15,CCOC(=O)C1=C(C)NC2=C(C(=O)CC(c3ccc(Cl)cc3)C2)C1c1ccc(OC)cc1 (centres undefined),5.93
16,OCC(O)Cn1c2ccc(Br)cc2c2cc(Br)ccc21 (centres undefined),< 4.82
17,N=c1n(CCN2CCCCC2)c2ccccc2n1CC(O)c1cccc2ccccc12 (centres undefined),5.49
18,O=C(Nc1cc(Cl)ccc1O)c1cnn2c1NC(c1ccc(Br)cc1)CC2C(F)(F)F (centres undefined),< 4.82
19,Oc1ccc(Br)cc1CN1CCN(CC2CC3C=CC2C3)CC1 (centres undefined),5.39
20,CC1CCC(C(C)C)C(OCC(O)CNC2CCCC2)C1 (centres undefined),5.46
21,Cc1ccc2c(c1)c1c3n2CCCN(Cc2ccc(Br)cc2)C3CCC1 (centres undefined),< 4.82
22,CCN(CC)CCN1C(=O)c2ccccc2NC1c1ccc(Cl)cc1Cl (centres undefined),< 4.82
23,OC(CNC1CCCCC1)COc1ccc(OCc2ccccc2)cc1 (centres undefined),< 4.82
24,Cc1ccc(OCC(O)CNC2CCCCC2)cc1 (centres undefined),5.83
25,OCCC1CN(Cc2cc(Cl)ccc2O)CCN1CCCc1ccccc1 (centres undefined),< 4.82

# — the supplement of paper PMC5580409
